Values quoted from earlier work in patent US6992047B2, “Method of microencapsulating an agricultural active having a high melting point and uses for such materials” (Monsanto Technology LLC, priority 2001, dated 2006).

Conditions: at 20° C.

Compound: C=CCNC(=O)c1c([Si](C)(C)C)sc(C)c1C [silthiopham, 4,5-dimethyl-N-(2-propenyl)-2-(trimethylsilyl)-3-thiophenecarboxamide]
- water solubility: 35 ppm
